# Experimental data reported in patent US6613961B1, “Plants capable of metabolizing drugs and use thereof” (priority 1998, dated 2003).
# Legend:
# [1] = tested on: seeds of Nipponbare into which the gene was not introduced; assay: Germination assay for herbicide resistance, non-introduced rice seeds; type: in vivo, rice (Nipponbare); details: chlorosulfuron 250 nM; after about 4 to 7 days
# [2] = tested on: human P4502C9 gene-introduced rice; assay: Germination assay for herbicide resistance of human P4502C9 gene-introduced rice R1 seeds; type: in vivo
# tobacco transformants = assay: Assay for herbicide resistance in the tobacco R0 plants (human CYP2C9); type: in vivo; design: Tolerance to chlorosulfuron: key: 1: almost dead; 2: severely inhibited growth; 3: slightly inferior growth; 4: the same growth as that when the herbicide was not dispersed; details: for Tolerance to chlorosulfuron: cultured for 40 days
# Method: (§1) Transformed and non-transformed tobacco plants proliferated from axillary buds were transferred onto hormone-free Murashige & Skoog (MS) medium containing 0, 20, 50, 100, or 200 nM chlorosulfuron for assaying tolerance at growth.
# (§2) 4, the same growth as that when the herbicide was not dispersed.
# Human CYP2C9 = Human CYP2C9 (Homo sapiens, UniProt P11712); assay: Herbicide metabolism by human P450 molecular species (microsomal fraction); type: in vitro ADME
# [3] = tested on: non-transformed tobacco plants; only vector introduced; assay: Assay for herbicide resistance in tobacco, control plants; type: in vivo; details: for Tolerance to chlorosulfuron: cultured for 40 days
# Method: as §1, §2
# tobacco R0 plants = assay: Herbicide metabolism in the tobacco R0 plants; type: in vivo; details: 14C-labeled 0.5 mM chlorosulfuron (20 μl) on the leaf surface; 50 hours; thin layer chromatography
# Method: Using the tobacco R0 plants 3 weeks after transplantation, metabolism of chlorosulfuron was measured by the method of Sweetser et al. (Sweetser, P. B. et al., Pestic. Biochem. Physiol., 1982, 17, 18-23). ^14C-labeled 0.5 mM chlorosulfuron (20 μl) was spread on the leaf surface. The leaf surface was washed with acetone 50 hours after the treatment, and a metabolite was extracted by acetone extraction. The extract was concentrated and dried by a rotary evaporator, dissolved in methanol, and analyzed by thin layer chromatography using benzene:acetone:formic acid (30:10:1) as an solvent.
# Sequence of Human CYP2C9 (P11712 whole entry): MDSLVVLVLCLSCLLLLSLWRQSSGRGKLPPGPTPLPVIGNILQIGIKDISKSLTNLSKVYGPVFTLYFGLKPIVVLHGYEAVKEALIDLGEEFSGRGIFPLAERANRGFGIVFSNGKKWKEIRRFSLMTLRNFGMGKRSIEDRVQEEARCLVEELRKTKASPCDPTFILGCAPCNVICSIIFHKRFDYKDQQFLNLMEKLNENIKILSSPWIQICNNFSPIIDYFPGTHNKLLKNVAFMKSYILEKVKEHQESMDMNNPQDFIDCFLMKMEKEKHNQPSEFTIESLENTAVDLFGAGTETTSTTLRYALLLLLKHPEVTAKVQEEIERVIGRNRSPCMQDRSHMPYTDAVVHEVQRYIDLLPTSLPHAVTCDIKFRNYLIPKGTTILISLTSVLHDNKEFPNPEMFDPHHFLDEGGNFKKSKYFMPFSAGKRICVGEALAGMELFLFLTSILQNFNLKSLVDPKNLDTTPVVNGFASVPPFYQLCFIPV
smiles,measurement,setting,value
COc1nc(C)nc(NC(=O)NS(=O)(=O)c2ccccc2Cl)n1 [chlorosulfuron],Germination of seeds,[1],inhibited
same,The number of tolerant lines,"[2]; 2C9, 250 nM · 2 ml, 44 sample lines",15
same,elongation of shoots and roots of segregated individuals,[2]; chlorosulfuron 250 nM,normally elongated
same,growth of the transformants,tobacco transformants; 200 nM chlorosulfuron,grew
same,Tolerance to chlorosulfuron,"tobacco transformants; transformant N8, 20 nM",4
same,Tolerance to chlorosulfuron,"tobacco transformants; transformant N8, 50 nM",4
same,Tolerance to chlorosulfuron,"tobacco transformants; transformant N8, 100 nM",2.5
same,Tolerance to chlorosulfuron,"tobacco transformants; transformant N8, 200 nM",2
same,Tolerance to chlorosulfuron,"tobacco transformants; transformant N60, 20 nM",4
same,Tolerance to chlorosulfuron,"tobacco transformants; transformant N60, 50 nM",4
same,Tolerance to chlorosulfuron,"tobacco transformants; transformant N60, 100 nM",3
same,Tolerance to chlorosulfuron,"tobacco transformants; transformant N60, 200 nM",3
same,Tolerance to chlorosulfuron,"tobacco transformants; transformant N61, 20 nM",4
same,Tolerance to chlorosulfuron,"tobacco transformants; transformant N61, 50 nM",4
same,Tolerance to chlorosulfuron,"tobacco transformants; transformant N61, 100 nM",2
same,Tolerance to chlorosulfuron,"tobacco transformants; transformant N61, 200 nM",2
same,Tolerance to chlorosulfuron,"tobacco transformants; transformant N69, 20 nM",4
same,Tolerance to chlorosulfuron,"tobacco transformants; transformant N69, 50 nM",4
same,Tolerance to chlorosulfuron,"tobacco transformants; transformant N69, 100 nM",2
same,Tolerance to chlorosulfuron,"tobacco transformants; transformant N69, 200 nM",2
same,metabolic reaction confirmed,Human CYP2C9,ring hydroxylation
same,growth of the non-transformed plants,[3]; 50 nM chlorosulfuron,completely inhibited
same,Tolerance to chlorosulfuron,"[3]; Non-transformed, 20 nM",2
same,Tolerance to chlorosulfuron,"[3]; Non-transformed, 50 nM",1.5
same,Tolerance to chlorosulfuron,"[3]; Non-transformed, 100 nM",1
same,Tolerance to chlorosulfuron,"[3]; Non-transformed, 200 nM",0.5
same,Tolerance to chlorosulfuron,"[3]; Only vector introduced, 20 nM",2
same,Tolerance to chlorosulfuron,"[3]; Only vector introduced, 50 nM",1.5
same,Tolerance to chlorosulfuron,"[3]; Only vector introduced, 100 nM",1
same,Tolerance to chlorosulfuron,"[3]; Only vector introduced, 200 nM",0.5
same,"water-soluble substances which remained at the starting point of the development, in the transformants",tobacco R0 plants,increased
